Laboratory results as given in patent US7125878B2, “Substituted pyrroline kinase inhibitors” (Janssen Pharmaceutica, priority 2002, dated 2006).
pIC50: −log10 of the molar value. Several values for one entry are separate records, joined by “and”; a condition that tells them apart may be missing. Equal values may be shown once.

Columns and labels:
[1] = target: PKC-γ (Homo sapiens, UniProt P05129); assay: Protein Kinase C Histone-Based Assay, isozyme γ; settings: read-out: PKC-γ % inhibition
Method: (§1) Compounds were evaluated for PKC isozyme selectivity using histone III as the substrate. […] 100 μg/mL phosphatidylserine, 20 μg/mL diacylglycerol, 30 μM ATP, 1 μCi [^33P]ATP and 200 μg/mL histone III. The reaction was incubated for 10 min at 30° C. Reactions were terminated by TCA precipitation and spotting on Whatman P81 filters. Filters were washed in 75 mM phosphoric acid and the radioactivity quantified by liquid scintillation counting.

[2] = target: T1, recombinant rabbit GSK-3β protein (Oryctolagus cuniculus, UniProt G1T8E2); assay: Glycogen Synthase Kinase-3 Assay (33P phosphorylation of PPI-2); assay type: biochemical; settings: for pIC50: two numbers = data obtained on different days; for inhibition at 1 µM: two numbers = different days
T1 construct: purchased New England Biolabs
T1 sequence (G1T8E2 1-432): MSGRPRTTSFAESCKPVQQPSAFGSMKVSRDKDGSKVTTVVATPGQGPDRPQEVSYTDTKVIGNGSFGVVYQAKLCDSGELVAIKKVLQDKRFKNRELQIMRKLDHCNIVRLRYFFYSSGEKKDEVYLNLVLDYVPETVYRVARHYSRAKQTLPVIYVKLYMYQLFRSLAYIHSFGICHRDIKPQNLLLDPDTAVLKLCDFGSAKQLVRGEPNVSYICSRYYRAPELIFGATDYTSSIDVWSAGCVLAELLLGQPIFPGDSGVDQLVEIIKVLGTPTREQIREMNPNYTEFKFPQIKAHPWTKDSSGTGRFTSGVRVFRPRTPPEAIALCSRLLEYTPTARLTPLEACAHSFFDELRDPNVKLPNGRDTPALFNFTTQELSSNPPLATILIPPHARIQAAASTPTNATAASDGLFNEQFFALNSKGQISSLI
Method: Glycogen Synthase Kinase-3 Assay
Compounds were tested for the ability to inhibit recombinant rabbit GSK-3β protein using the following protocol. The test compound was added to a reaction mixture containing Protein Phosphatase Inhibitor-2 (PPI-2) (Calbiochem) (45 ng), rabbit GSK-3β protein (New England Biolabs) (0.75 units) and ^33P-ATP (1 μCi) in 50 mM Tris-HCl (pH 8.0), 10 mM MgCl2, 0.1% BSA, 1 mM DTT and 100 μM Sodium Vanadate. The mixture was reacted for 90 minutes at 30° C. to allow phosphorylation of the PPI-2 protein and then the protein in the reaction was precipitated using 10% TCA. The precipitated protein was collected on filter plates (MultiScreen-DV/Millipore), which were subsequently washed. Finally, the radioactivity was quantified using a TopCount Scintillation Counter (Packard). […] Staurosporine or Valproate, known inhibitors of GSK-3β, were used as a positive control for screening.

[3] = target: PKC-α (Homo sapiens, UniProt P17252); assay: Protein Kinase C Histone-Based Assay, isozyme α; settings: read-out: PKC-α % inhibition
Method: as §1

[4] = target: PKC-βII (Homo sapiens, UniProt P05771); assay: Protein Kinase C Histone-Based Assay, isozyme β-II; assay type: biochemical
Chain of PKC-βII (P05771 1-673 isoform P05771-2): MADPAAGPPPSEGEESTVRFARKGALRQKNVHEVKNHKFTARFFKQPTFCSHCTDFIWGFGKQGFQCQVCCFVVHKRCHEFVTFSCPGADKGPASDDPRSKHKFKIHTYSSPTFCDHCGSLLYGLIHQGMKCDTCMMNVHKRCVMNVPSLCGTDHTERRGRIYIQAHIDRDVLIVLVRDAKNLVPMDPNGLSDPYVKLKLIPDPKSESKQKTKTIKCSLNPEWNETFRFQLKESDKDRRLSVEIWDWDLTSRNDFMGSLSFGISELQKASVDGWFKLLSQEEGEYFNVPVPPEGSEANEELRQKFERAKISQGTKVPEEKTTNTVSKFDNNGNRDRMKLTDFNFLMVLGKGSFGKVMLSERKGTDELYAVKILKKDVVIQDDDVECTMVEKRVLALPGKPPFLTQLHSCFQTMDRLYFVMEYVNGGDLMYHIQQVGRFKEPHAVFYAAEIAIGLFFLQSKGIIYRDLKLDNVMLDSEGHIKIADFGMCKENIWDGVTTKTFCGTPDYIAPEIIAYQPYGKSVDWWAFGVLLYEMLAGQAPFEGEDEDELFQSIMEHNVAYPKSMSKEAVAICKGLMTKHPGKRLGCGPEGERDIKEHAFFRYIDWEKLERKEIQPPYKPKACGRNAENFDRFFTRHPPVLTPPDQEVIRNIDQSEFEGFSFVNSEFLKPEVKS
Method: as §1

`O=C1NC(=O)C(c2cn(CCCO)c3ncccc23)=C1c1ccccc1Cl` [Cpd 1, 3-(2-chlorophenyl)-4-[1-(3-hydroxypropyl)-1H-pyrrolo[2,3-b]pyridin-3-yl]-1H-pyrrole-2,5-dione] was tested, and the inhibition at 1 µM [1] was 48%, the inhibition at 10 µM [1] was 43% and the pIC50 [2] was 8.05 and 8.00. The inhibition at 1 µM [3] was 18%, the inhibition at 10 µM [3] was 2% and the inhibition at 1 µM [4] was 14%. The inhibition at 10 µM [4] was 81%.
An inhibition at 1 µM [1] of 46%, an inhibition at 10 µM [1] of 54% and a pIC50 [2] of 7.72 were found for `CN(C)CCCn1cc(C2=C(c3ccccc3Cl)C(=O)NC2=O)c2cccnc21` [Cpd 2, 3-(2-chlorophenyl)-4-[1-[3-(dimethylamino)propyl]-1H-pyrrolo[2,3-b]pyridin-3-yl]-1H-pyrrole-2,5-dione] in this work. For the same compound, the inhibition at 1 µM [3] was 0%, the inhibition at 10 µM [3] was 1% and the inhibition at 1 µM [4] was 22%. For the same compound, the inhibition at 10 µM [4] was 50%.
In the case of `O=C1NC(=O)C(c2cn(CCCO)c3ncccc23)=C1c1cccc2ccccc12` [Cpd 3, 3-[1-(3-hydroxypropyl)-1H-pyrrolo[2,3-b]pyridin-3-yl]-4-(1-naphthalenyl)-1H-pyrrole-2,5-dione], the inhibition at 1 µM [1] was 20%, the inhibition at 10 µM [1] was 31% and the pIC50 [2] was 7.52 and 7.51. It also gave an inhibition at 1 µM [3] of 0%, an inhibition at 10 µM [3] of 51% and an inhibition at 1 µM [4] of 30%. The inhibition at 10 µM [4] was 89%.
An inhibition at 1 µM [1] of 48%, an inhibition at 10 µM [1] of 59% and an inhibition at 0.1 µM ([2]; @100 nM) of 51% were found for `CN(C)CCCn1cc(C2=C(c3cccc4ccccc34)C(=O)NC2=O)c2cccnc21` [Cpd 4, 3-[1-[3-(dimethylamino)propyl]-1H-pyrrolo[2,3-b]pyridin-3-yl]-4-(1-naphthalenyl)-1H-pyrrole-2,5-dione] in this work. It also gave an inhibition at 1 µM [3] of 0%, an inhibition at 10 µM [3] of 34% and an inhibition at 1 µM [4] of 47%. It also gave an inhibition at 10 µM [4] of 84%.
An inhibition at 1 µM [1] of 44%, an inhibition at 10 µM [1] of 57% and an inhibition at 0.4 µM ([2]; @400 nM) of 56% were found for `O=C1NC(=O)C(c2cn(CCCO)c3ncccc23)=C1c1csc2ccc(Cl)cc12` [Cpd 5, 3-(5-chlorobenzo[b]thien-3-yl)-4-[1-(3-hydroxypropyl)-1H-pyrrolo[2,3-b]pyridin-3-yl]-1H-pyrrole-2,5-dione] in this work. It also gave an inhibition at 1 µM [3] of 0%, an inhibition at 10 µM [3] of 34% and an inhibition at 1 µM [4] of 21%. It also gave an inhibition at 10 µM [4] of 81%.
`O=C1NC(=O)C(c2cn(CCCc3ccccc3)c3ncccc23)=C1C1=CCCCO1` [Cpd 61, 3-(5,6-Dihydro-4H-pyran-2-yl)-4-[1-(3-phenyl-propyl)-1H-pyrrolo[2,3-b]pyridin-3-yl]-pyrrole-2,5-dione] was tested, and the pIC50 [2] was 6.15 and 6.20.
`COc1ncc(C2=C(c3cn(CCCC#N)c4ncccc34)C(=O)NC2=O)c(OC)n1` [Cpd 62, 4-{3-[4-(2,4-Dimethoxy-pyrimidin-5-yl)-2,5-dioxo-2,5-dihydro-1H-pyrrol-3-yl]-pyrrolo[2,3-b]pyridin-1-yl}-butyronitrile] was tested, and the pIC50 [2] was 7.44 and 7.46.
`N#CCCCn1cc(C2=C(c3cnccn3)C(=O)NC2=O)c2cccnc21` [Cpd 63, 4-[3-(2,5-Dioxo-4-pyrazin-2-yl-2,5-dihydro-1H-pyrrol-3-yl)-pyrrolo[2,3-b]pyridin-1-yl]-butyronitrile] was tested, and the pIC50 [2] was 7.11 and 6.99.
`Cn1ccc(C2=C(c3cn(CCCC#N)c4ncccc34)C(=O)NC2=O)n1` [Cpd 64, 4-{3-[4-(1-Methyl-1H-pyrazol-3-yl)-2,5-dioxo-2,5-dihydro-1H-pyrrol-3-yl]-pyrrolo[2,3-b]pyridin-1-yl}-butyronitrile] was tested, and the pIC50 [2] was 7.11 and 6.89.
In the case of `O=C1NC(=O)C(c2cn(CCCOc3ccccc3)c3ncccc23)=C1c1cc2n(n1)CCC2` [Cpd 65, 3-(5,6-Dihydro-4H-pyrrolo[1,2-b]pyrazol-2-yl)-4-[1-(3-phenoxy-propyl)-1H-pyrrolo[2,3-b]pyridin-3-yl]-pyrrole-2,5-dione], the pIC50 [2] was 6.73 and 6.61.
For `Cn1nccc1C1=C(c2cn(CCCO)c3ncccc23)C(=O)NC1=O` [Cpd 66, 3-[1-(3-Hydroxy-propyl)-1H-pyrrolo[2,3-b]pyridin-3-yl]-4-(2-methyl-2H-pyrazol-3-yl)-pyrrole-2,5-dione], the pIC50 [2] was 6.32 and 6.18.
With `O=C1NC(=O)C(c2cn(CCCO)c3ncccc23)=C1c1ccoc1` [Cpd 67, 3-Furan-3-yl-4-[1-(3-hydroxy-propyl)-1H-pyrrolo[2,3-b]pyridin-3-yl]-pyrrole-2,5-dione] the pIC50 [2] was 6.85 and 7.23.
An inhibition at 1 µM [2] of 43% was found for `O=C1NC(=O)C(c2cn(CCCO)c3ncccc23)=C1c1c[nH]c(=O)[nH]c1=O` [Cpd 68, 5-{4-[1-(3-Hydroxy-propyl)-1H-pyrrolo[2,3-b]pyridin-3-yl]-2,5-dioxo-2,5-dihydro-1H-pyrrol-3-yl}-1H-pyrimidine-2,4-dione] in this work.
A pIC50 [2] of 7.00 was found for `Cn1ccc(C2=C(c3cn(CCC#N)c4ncccc34)C(=O)NC2=O)n1` [Cpd 69, 3-{3-[4-(1-Methyl-1H-pyrazol-3-yl)-2,5-dioxo-2,5-dihydro-1H-pyrrol-3-yl]-pyrrolo[2,3-b]pyridin-1-yl}-propionitrile] in this work.
A pIC50 [2] of 6.42 was found for `CCCCC1=C(c2cn(CCCO)c3ncccc23)C(=O)NC1=O` [Cpd 70, 3-Butyl-4-[1-(3-hydroxy-propyl)-1H-pyrrolo[2,3-b]pyridin-3-yl]-pyrrole-2,5-dione] in this work.
A pIC50 [2] of 6.44 was found for `COCCn1cc(C2=C(c3cnc(OC)nc3OC)C(=O)NC2=O)c2cccnc21` [Cpd 71, 3-(2,4-Dimethoxy-pyrimidin-5-yl)-4-[1-(2-methoxy-ethyl)-1H-pyrrolo[2,3-b]pyridin-3-yl]-pyrrole-2,5-dione] in this work.
An inhibition at 1 µM [2] of 54% was found for `COc1ncc(C2=C(c3cn(Cc4ccccc4)c4ncccc34)C(=O)NC2=O)c(OC)n1` [Cpd 72, 3-(1-Benzyl-1H-pyrrolo[2,3-b]pyridin-3-yl)-4-(2,4-dimethoxy-pyrimidin-5-yl)-pyrrole-2,5-dione] in this work.
A pIC50 [2] of 7.00 was found for `COc1ncc(C2=C(c3cn(CCc4ccccc4)c4ncccc34)C(=O)NC2=O)c(OC)n1` [Cpd 73, 3-(2,4-Dimethoxy-pyrimidin-5-yl)-4-(1-phenethyl-1H-pyrrolo[2,3-b]pyridin-3-yl)-pyrrole-2,5-dione] in this work.
An inhibition at 1 µM [2] of 39% was found for `COc1ncc(C2=C(c3cn(CCCc4cccs4)c4ncccc34)C(=O)NC2=O)c(OC)n1` [Cpd 74, 3-(2,4-Dimethoxy-pyrimidin-5-yl)-4-[1-(3-thiophen-2-yl-propyl)-1H-pyrrolo[2,3-b]pyridin-3-yl]-pyrrole-2,5-dione] in this work.
A pIC50 [2] of 6.62 was found for `COc1ncc(C2=C(c3cn(CCOc4ccc(F)cc4)c4ncccc34)C(=O)NC2=O)c(OC)n1` [Cpd 75, 3-(2,4-Dimethoxy-pyrimidin-5-yl)-4-{1-[2-(4-fluoro-phenoxy)-ethyl]-1H-pyrrolo[2,3-b]pyridin-3-yl}-pyrrole-2,5-dione] in this work.
In the case of `COc1ncc(C2=C(c3cn(CCCOc4ccccc4)c4ncccc34)C(=O)NC2=O)c(OC)n1` [Cpd 76, 3-(2,4-Dimethoxy-pyrimidin-5-yl)-4-[1-(3-phenoxy-propyl)-1H-pyrrolo[2,3-b]pyridin-3-yl]-pyrrole-2,5-dione], the pIC50 [2] was 7.37 and 7.23.
In the case of `COc1ccccc1C1=C(c2cn(CCCNC(C)=O)c3ncccc23)C(=O)NC1=O` [Cpd 77, N-[3-[3-[2,5-dihydro-4-(2-methoxyphenyl)-2,5-dioxo-1H-pyrrol-3-yl]-1H-pyrrolo[2,3-b]pyridin-1-yl]propyl]-acetamide], the pIC50 [2] was 8.70 and 8.52, the inhibition at 10 µM [3] was 26% and the inhibition at 1 µM [4] was 49%.
